Results taken from publication PMC6017357, “In Vitro Inhibitory Effects of Synthetic Cannabinoid EAM-2201 on Cytochrome P450 and UDP-Glucuronosyltransferase Enzyme Activities in Human Liver Microsomes” (Molecules : A Journal of Synthetic Chemistry and Natural …, 2018).

Target: T1, UGT2B7 (Homo sapiens, UniProt P16662)
T1 construct: ultrapooled human liver microsomes (0.2 mg/mL), 5 mM UDPGA; from tissue; host or cells: ultrapooled human liver microsomes
T1 sequence (P16662 24-529): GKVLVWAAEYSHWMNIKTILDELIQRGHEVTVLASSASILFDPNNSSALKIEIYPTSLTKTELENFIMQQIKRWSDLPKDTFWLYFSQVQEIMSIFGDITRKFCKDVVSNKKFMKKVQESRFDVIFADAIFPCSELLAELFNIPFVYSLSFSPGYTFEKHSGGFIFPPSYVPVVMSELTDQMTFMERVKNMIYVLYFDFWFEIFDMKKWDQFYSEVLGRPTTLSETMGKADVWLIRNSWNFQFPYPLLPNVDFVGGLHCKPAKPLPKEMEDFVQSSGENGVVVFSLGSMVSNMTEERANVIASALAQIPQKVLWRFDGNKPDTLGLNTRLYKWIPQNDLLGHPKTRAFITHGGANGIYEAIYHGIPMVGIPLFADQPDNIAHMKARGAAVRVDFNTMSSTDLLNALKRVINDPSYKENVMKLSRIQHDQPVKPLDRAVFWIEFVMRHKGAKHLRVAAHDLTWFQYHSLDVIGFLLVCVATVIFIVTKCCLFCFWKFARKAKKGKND
Assay: UGT2B7-catalyzed naloxone 3-β-D-glucuronidation in human liver microsomes
Assay type: in vitro ADME
Settings: at 50 µM
Procedure: The inhibitory effects of EAM-2201 on UGT1A1, UGT1A3, UGT1A4, UGT1A6, UGT1A9 and UGT2B7 were evaluated using LC-MS/MS and the cocktail of UGT substrates as previously described. Each incubation mixture was prepared in a final volume of 100 µL as follows: ultrapooled human liver microsomes (0.2 mg/mL), 5 mM UDPGA, 10 mM magnesium chloride, alamethicin (25 µg/mL), 50 mM Tris buffer (pH 7.4), various concentrations of EAM-2201 in DMSO (final concentrations of 1–50 µM, 0.5% DMSO) and the UGT enzyme-specific substrates of two cocktail sets (set A: 0.5 µM SN-38, 2 µM chenodeoxycholic acid and 0.5 µM trifluoperazine; set B: 1 µM N-acetylserotonin, 0.2 µM mycophenolic acid and 1 µM naloxone, acetonitrile content, 0.5%). […] Supernatant from sets A and B (50 µL of each) was mixed and aliquots (5 µL) were analyzed by LC-MS/MS. […]
The metabolites formed from the six UGT cocktail substrates were simultaneously measured using LC-MS/MS [41]. […] Each metabolite was quantified via SRM in the negative ion mode: chenodeoxycholic acid 24-acyl-β-glucuronide, 567.2 > 391.0; mycophenolic acid glucuronide, 495.2 > 318.9; and propofol glucuronide (IS), 353.3 > 177.1; and in the positive ion mode: SN-38 glucuronide, 569.0 > 393.0; trifluoperazine glucuronide, 584.2 > 408.1; N-acetylserotonin-β-D-glucuronide, 395.2 > 219.0; naloxone 3-β-D-glucuronide, 504.0 > 310.0; and meloxicam (IS), 352.0 > 115.1. […]

CCc1ccc(C(=O)c2cn(CCCCCF)c3ccccc23)c2ccccc12 [EAM-2201, (4-ethyl-1-naphthalenyl)[1-(5-fluoropentyl)-1H-indol-3-yl]-methanone]
inhibition of UGT2B7-catalyzed naloxone 3-β-D-glucuronidation: negligibly inhibited
